The source of these data is patent US12422427B2, “Compounds for treatment of diseases and methods of screening therefor” (Max-Planck-Gesellschaft zur Förderung der Wissenschaften …, priority 2018, dated 2025).

Entries after “also recorded” stand apart in the source; their conditions may differ.

Series [1] concerns liquid-like non-membrane bound compartments. Particulars: cited from earlier work.
The subject of series [2] is EWSR1, TIAL1, PABPC1, G3BP1. The series is described as follows: Panel of HeLa lines expressing GFP-labelled stress granule proteins, arsenate stress. The following applies: 1 mM arsenate, 10 μM compound. The series is classed as cell-based. As to the method:
It was anticipated that a useful therapeutic would prevent all PLD-containing stress granule proteins from localising to stress granules. The inventors used 1 mM arsenate to stress a panel of HeLa cell lines expressing GFP fusions of stress granule proteins (EWSR1, TIAL1, PABPC1, G3BP1) with either no treatment or 10 μM lipoic acid or lipoamide.
Compound effects were assessed under a variety of conditions in HeLa or iPS cells expressing wild-type or P525L FUS GFP by live cell imaging. Different combinations of 1 h pre-treatment compound or pre-stress with arsenate followed by 1 h treatment with compound and/or stress with arsenate. Unless otherwise indicated, cells were pre-treated for 1 h using 10 μM compound from 10 mM stock in DMSO (or an equal volume of DMSO control) then stressed for 1 h with 1 mM potassium arsenate still in the presence of compound. GFP fluorescence was imaged by widefield epifluorescence using an inverted Olympus IX71 microscope with an Olympus 100× NA 1.4 Plan Apo oil immersion objective and a CoolSNAP HQ CCD camera (Photometrics), using a DeltaVision climate control unit (37° C., 5% CO2) (Applied Precision). The kinetics of pre-stress followed by treatment was analysed from images captured at 2 min intervals for 100 min, for single time points images were captured after 1 h unless otherwise indicated.

In series [3] the test system is HeLa cells expressing FUS GFP. The series is described as follows: Stress granule formation in HeLa FUS GFP cells under different stresses. The series is classed as cell-based. Particulars: 10 μM; mitochondrial (rotenone), hyperosmotic (sorbitol) or arsenate stress. As to the method: The stressor, arsenate, will react with the thiol groups of lipoamide. Therefore, to exclude the possibility that lipoamide is acting only by removing the stressor, so it was further tested whether lipoic acid can prevent stress granule formation triggered by other stresses than arsenate (an oxidative) stress: Mitochondrial electron transport chain inhibition (rotenone), heat stress (42° C.), hyperosmotic stress (sorbitol, a non-metabolisable sugar), glycolysis inhibition ([…] in the absence of glucose) or serum starvation.
Various cellular stresses were achieved by replacing 1 h 1 mM potassium arsenate treatment with other conditions: 100 μM rotenone (R8875, Sigma Aldrich) from a 1 M stock in DMSO for 2 h (mitochondrial stress). […] Sorbitol (S1876, Sigma Aldrich) from a 4 M stock in H2O for 1 h (osmotic stress). 42° C. in normal growth medium for 30 m (heat stress). […] Appropriate solvent controls were used.

The subject of series [4] is HeLa cells expressing FUS GFP. The experiment in a line: HeLa cell compound dose responses (FUS GFP, arsenate stress). The series is classed as cell-based. Particulars: 1 h 1 mM arsenate stress. As to the method: Small dilution steps rather than concentration replicates were selected as it provides greater statistical power from a set number of samples. Final DMSO concentration was 0.08% in all samples, and each plate included at least 12 control wells with 0.08% DMSO. Cytoplasmic FUS droplet number and nuclear/cytoplasm partition of FUS were analysed using custom macros in ImageJ. Nuclei were identified by intensity thresholding of the blue fluorescence image following a 5 px Gaussian blur. Cytoplasmic FUS droplets by intensity thresholding of the green image following a 10 px weight 0.9 unsharp filter masked by the thresholded nuclei, and nuclear FUS droplets by intensity thresholding of the green image following a 5 px weight 0.9 unsharp filter and 10 px rolling ball background subtraction masked to only include thresholded nuclei. The ratio of cytoplasmic FUS drops to nuclei was taken as cytoplasmic FUS droplets per cell per field of view, and p, the ratio of partition of FUS to the nucleus and the cytoplasm, was derived from a=Vn/vt, the ratio of nuclear to total green signal per field of view, where p=a/(1−a). […] Six fields of view were captured and analysed per condition.

For another series, the system named is PAB-1. The experiment in a line: Protein aggregation in C. elegans: PAB-1. The series is classed as in vivo, Caenorhabditis elegans. The following applies: liquid culture from L4, scored day 2 of adulthood. As to the method: The effect of lipoic acid on stress granule protein aggregation in vivo was analysed using a C. elegans model for stress granule formation and aggregation. As previously described, fluorescent-tagged PAB-1 forms abundant stress granules and large solid aggregates during aging or upon chronic stress. RHO-1 and KIN-19 also aggregate during aging, but are not RNA binding or stress granule proteins. Three lines were used: Fluorescently tagged PAB-1 (DCD214: N2; uqIs24[pmyo-2::tagrfp::pab 1gene]), KIN-19 (CF3649: N2; muIs 209[pmyo-3::kin-19::tagrfp+ptph-1::GFP] and RHO-1 (DCD13: N2; uqIs9 [pmyo-2::rho-1::tagr fp+ptph-1::gfp]). Each were analysed as below, except DCD13 were maintained at 20° C.
The animals were exposed to lipoic acid in liquid culture in a 96 well plate starting from larval stage L4 in a total volume of 50 μl S-Complete per well (100 mM NaCl, 50 mM Potassium phosphate pH 6, 10 mM potassium citrate, 3 mM MgSO4, 3 mM CaCl2), 5 μg/mL cholesterol, 50 μM ethylenediaminetetraacetic acid (EDTA), 25 μM FeSO4, 10 μM MnCl2, 10 μM ZnSO4, 1 μM CuSO4) supplemented with heat-killed OP50 and 50 μg/ml carbenicillin. […] Toxicity was evaluated from the number of dead or aberrantly small-sized animals.
48 h after switching the L4s from 20° C. to 25° C. […] After immobilization with 2 mM levamisole aggregation was scored using a fluorescent stereo microscope (Leica M165 FC, Plan Apo 2.0× objective). […]

`OCCCCCCO` [1,6-hexanediol]: in series [1], the “concentrations required for in vitro or cellular activity” value is given as 1-10% and the “toxicity at active concentrations” value is reported as “rapidly toxic”.
As to `O=C(O)CCCC[C@@H]1CCSS1` [R-(+)-lipoic acid], the “localisation of EWSR1, TIAL1, PABPC1, G3BP1 GFP to stress granules” value in series [2] was “localised to stress granules in the absence of treatment, and not in the presence”. The stress granule formation result in series [3] is “reduced stress granule formation”. The “EC50 reducing stress granule number, compared among compounds” value in series [4] is “comparable EC50”. Further, the “proportion of animals with aggregation of PAB-1” value in the series with PAB-1 is reported as “dose-dependent decrease; also recorded: strong dose-dependent reduction”.
As for S-(−)-lipoic acid, the “localisation of EWSR1, TIAL1, PABPC1, G3BP1 GFP to stress granules” value in series [2] is “localised to stress granules in the absence of treatment, and not in the presence”. Further, the stress granule formation result in series [3] is on record as “reduced stress granule formation”. Besides, the “EC50 reducing stress granule number, compared among compounds” value in series [4] was “comparable EC50; also recorded: very similar activity”. Further, in the series on PAB-1, the “proportion of animals with aggregation of PAB-1” value was “dose-dependent decrease; also recorded: strong dose-dependent reduction”.
